Results taken from patent US10357036B2, “Compounds for controlling arthropods” (priority 2015, dated 2019).

Assays:
Boophilus microplus = Boophilus microplus injection test; type: in vivo; conditions: 20 μg/animal; assessed after 7 days
Experimental: (§1) • Solvent: dimethyl sulfoxide
1 μl of the active ingredient solution is injected into the abdomen of 5 engorged adult female cattle ticks (Boophilus microplus). The animals are transferred into dishes and kept in a climate-controlled room.

Ctenocephalides felis [1] = assay: Ctenocephalides felis oral test; type: in vivo; conditions: 100 ppm in citrated cattle blood; after 2 days
Musca domestica = Musca domestica test; type: in vivo; conditions: 100 ppm; adult houseflies; after 2 days
Experimental: as §1
To produce a suitable active ingredient formulation, 10 mg of active ingredient are mixed with 0.5 ml of dimethyl sulfoxide, and the concentrate is diluted with water to the desired concentration.
Vessels containing a sponge treated with sugar solution and the active ingredient formulation of the desired concentration are populated with 10 adult houseflies (Musca domestica).

Myzus persicae = Myzus persicae spray test (Chinese cabbage leaf discs); type: in vivo; conditions: 100 g/ha; after 6 days
Experimental: (§2) After 6 days, the efficacy in % is determined.

Spodoptera frugiperda = Spodoptera frugiperda spray test; type: in vivo; conditions: 100 g/ha; after 7 days
Phaedon cochleariae = Phaedon cochleariae spray test; conditions: 100 g/ha; after 7 days
Ctenocephalides felis [2] = assay: Ctenocephalides felis in vitro contact test with adult cat fleas; type: in vivo; conditions: application rate 5 μg/cm^2 (=500 g/ha); after 48 h; dead or moribund fleas
Experimental: (§3) For the coating of the test tubes, 9 mg of active ingredient are first dissolved in 1 ml of acetone p.a. and then diluted to the desired concentration with acetone p.a. 250 μl of the solution are distributed homogeneously on the inner walls and the base of a 25 ml glass tube by turning and rocking on an orbital shaker (rocking rotation at 30 rpm for 2 h). With 900 ppm of active ingredient solution and internal surface area 44.7 cm^2, given homogeneous distribution, an area-based dose of 5 μg/cm^2 is achieved.
After the solvent has evaporated off, the tubes are populated with 5-10 adult cat fleas (Ctenocephalides felis), sealed with a perforated plastic lid and incubated in a horizontal position at room temperature and ambient humidity. After 48 h, efficacy is determined. To this end, the tubes are stood upright and the fleas are knocked to the base of the tube. Fleas which remain motionless at the base or move in an uncoordinated manner are considered to be dead or moribund.
100% efficacy means that all the fleas were dead or moribund. 0% efficacy means that no fleas were harmed.

Rhipicephalus sanguineus = Rhipicephalus sanguineus in vitro contact test with adult brown dog ticks; type: in vivo; conditions: application rate 5 μg/cm^2 (=500 g/ha); after 48 h; dead or moribund ticks
Experimental: as §3
After the solvent has evaporated off, the tubes are populated with 5-10 adult dog ticks (Rhipicephalus sanguineus), sealed with a perforated plastic lid and incubated in a horizontal position in the dark at room temperature and ambient humidity. After 48 h, efficacy is determined. To this end, the ticks are knocked to the base of the tube and incubated on a hotplate at 45-50° C. for not more than 5 min. Ticks which remain motionless on the base or move in such an uncoordinated manner that they are unable to deliberately avoid the heat by climbing upwards are considered to be dead or moribund.
An efficacy of 100% means that all the ticks were dead or moribund. 0% efficacy means that none of the ticks were harmed.

Tetranychus urticae = Tetranychus urticae spray test, OP-resistant (bean leaf discs); type: in vivo; conditions: 100 g/ha; after 6 days
Experimental: as §2

## CC(=O)NCc1cccc(-c2cnn(-c3c(Cl)cc(C(F)(C(F)(F)F)C(F)(F)F)cc3OC(F)F)c2)c1F [Ia-155]
Boophilus microplus
  efficacy (laying of fertile eggs): 100%
Ctenocephalides felis [1]
  efficacy (rate of extermination): 100%
Musca domestica
  efficacy (rate of extermination): 100%
Myzus persicae
  efficacy: 90%
Spodoptera frugiperda
  efficacy: 100%
Phaedon cochleariae
  efficacy: 100%

## CC(=O)N(C)Cc1cc(-c2cnn(-c3c(Cl)cc(C(F)(C(F)(F)F)C(F)(F)F)cc3Cl)c2)ccc1Cl [Ia-20]
Ctenocephalides felis [2]
  efficacy: 100%
Rhipicephalus sanguineus
  efficacy: 80%
Boophilus microplus
  efficacy (laying of fertile eggs): 100%
Ctenocephalides felis [1]
  efficacy (rate of extermination): 100%
Musca domestica
  efficacy (rate of extermination): 90%
Spodoptera frugiperda
  efficacy: 100%
Tetranychus urticae
  efficacy: 100%
Phaedon cochleariae
  efficacy: 100%

## Cc1cc(C(F)(C(F)(F)F)C(F)(F)F)cc(Cl)c1-n1cc(-c2ccc(F)c(CNC(=O)C3CC3)c2)cn1 [Ia-67]
Ctenocephalides felis [2]
  efficacy: 80%
Rhipicephalus sanguineus
  efficacy: 80%
Boophilus microplus
  efficacy (laying of fertile eggs): 100%
Ctenocephalides felis [1]
  efficacy (rate of extermination): 100%
Musca domestica
  efficacy (rate of extermination): 100%
Spodoptera frugiperda
  efficacy: 100%
Tetranychus urticae
  efficacy: 100%
Phaedon cochleariae
  efficacy: 100%

## CCC(=O)NCc1cc(-c2cnn(-c3c(C)cc(C(F)(C(F)(F)F)C(F)(F)F)cc3Cl)c2)ccc1C [Ia-76]
Ctenocephalides felis [2]
  efficacy: 100%
Rhipicephalus sanguineus
  efficacy: 100%
Boophilus microplus
  efficacy (laying of fertile eggs): 100%
Ctenocephalides felis [1]
  efficacy (rate of extermination): 100%
Musca domestica
  efficacy (rate of extermination): 100%
Myzus persicae
  efficacy: 90%
Spodoptera frugiperda
  efficacy: 100%
Tetranychus urticae
  efficacy: 100%
Phaedon cochleariae
  efficacy: 100%

## CC(=O)NCc1cc(-c2cnn(-c3c(Cl)cc(C(F)(C(F)(F)F)C(F)(F)F)cc3OC(F)F)c2)cnc1Cl [Ia-156]
Myzus persicae
  efficacy: 90%
Spodoptera frugiperda
  efficacy: 100%
Tetranychus urticae
  efficacy: 100%
Phaedon cochleariae
  efficacy: 100%

## CCC(=O)N(C)Cc1cc(-c2cnn(-c3c(Cl)cc(C(F)(C(F)(F)F)C(F)(F)F)cc3Cl)c2)cnc1Cl [Ia-134]
Ctenocephalides felis [2]
  efficacy: 100%
Boophilus microplus
  efficacy (laying of fertile eggs): 100%
Ctenocephalides felis [1]
  efficacy (rate of extermination): 100%
Musca domestica
  efficacy (rate of extermination): 100%
Myzus persicae
  efficacy: 100%
Spodoptera frugiperda
  efficacy: 100%
Tetranychus urticae
  efficacy: 100%
Phaedon cochleariae
  efficacy: 100%

## CC(=O)NCc1cc(-c2cnn(-c3c(Cl)cc(C(F)(C(F)(F)F)C(F)(F)F)cc3C(F)(F)F)c2)cnc1Cl [Ia-139]
Ctenocephalides felis [2]
  efficacy: 100%
Rhipicephalus sanguineus
  efficacy: 100%
Boophilus microplus
  efficacy (laying of fertile eggs): 100%
Ctenocephalides felis [1]
  efficacy (rate of extermination): 100%
Musca domestica
  efficacy (rate of extermination): 100%
Spodoptera frugiperda
  efficacy: 100%
Tetranychus urticae
  efficacy: 90%
Phaedon cochleariae
  efficacy: 100%

## CC(=O)N(C)Cc1cc(-c2cnn(-c3c(Cl)cc(C(F)(C(F)(F)F)C(F)(F)F)cc3OC(F)(F)F)c2)cnc1Cl [Ia-136]
Ctenocephalides felis [2]
  efficacy: 100%
Boophilus microplus
  efficacy (laying of fertile eggs): 100%
Ctenocephalides felis [1]
  efficacy (rate of extermination): 100%
Musca domestica
  efficacy (rate of extermination): 100%
Myzus persicae
  efficacy: 100%
Spodoptera frugiperda
  efficacy: 100%
Tetranychus urticae
  efficacy: 100%
Phaedon cochleariae
  efficacy: 100%

## CCC(=O)NCc1cc(-c2cnn(-c3c(Cl)cc(C(F)(C(F)(F)F)C(F)(F)F)cc3C(F)(F)F)c2)cnc1Cl [Ia-138]
Myzus persicae
  efficacy: 90%
Spodoptera frugiperda
  efficacy: 100%
Tetranychus urticae
  efficacy: 90%
Phaedon cochleariae
  efficacy: 100%

## CC(=O)N(Cc1cc(-c2cnn(-c3c(Cl)cc(C(F)(C(F)(F)F)C(F)(F)F)cc3Cl)c2)ccc1Cl)CC1CC1 [Ia-116]
Ctenocephalides felis [2]
  efficacy: 100%
Rhipicephalus sanguineus
  efficacy: 80%
Boophilus microplus
  efficacy (laying of fertile eggs): 100%
Ctenocephalides felis [1]
  efficacy (rate of extermination): 100%
Musca domestica
  efficacy (rate of extermination): 100%
Spodoptera frugiperda
  efficacy: 100%
Tetranychus urticae
  efficacy: 100%
Phaedon cochleariae
  efficacy: 100%

## CCC(=O)NCc1cc(-c2cnn(-c3c(Cl)cc(C(F)(C(F)(F)F)C(F)(F)F)cc3C(F)(F)F)c2)ccc1C [Ia-80]
Ctenocephalides felis [2]
  efficacy: 100%
Rhipicephalus sanguineus
  efficacy: 100%
Boophilus microplus
  efficacy (laying of fertile eggs): 100%
Ctenocephalides felis [1]
  efficacy (rate of extermination): 100%
Musca domestica
  efficacy (rate of extermination): 100%
Myzus persicae
  efficacy: 90%
Spodoptera frugiperda
  efficacy: 100%
Tetranychus urticae
  efficacy: 100%
Phaedon cochleariae
  efficacy: 83%

## CCC(=O)NCc1cccc(-c2cnn(-c3c(Cl)cc(C(F)(C(F)(F)F)C(F)(F)F)cc3OC(F)F)c2)c1F [Ia-159]
Boophilus microplus
  efficacy (laying of fertile eggs): 100%
Ctenocephalides felis [1]
  efficacy (rate of extermination): 100%
Musca domestica
  efficacy (rate of extermination): 100%
Myzus persicae
  efficacy: 90%
Spodoptera frugiperda
  efficacy: 100%
Phaedon cochleariae
  efficacy: 100%

## CC(=O)NCc1c(F)ccc(-c2cnn(-c3c(Cl)cc(C(F)(C(F)(F)F)C(F)(F)F)cc3C(F)(F)F)c2)c1F [Ia-147]
Ctenocephalides felis [2]
  efficacy: 100%
Rhipicephalus sanguineus
  efficacy: 100%
Boophilus microplus
  efficacy (laying of fertile eggs): 100%
Ctenocephalides felis [1]
  efficacy (rate of extermination): 100%
Musca domestica
  efficacy (rate of extermination): 100%
Myzus persicae
  efficacy: 90%
Spodoptera frugiperda
  efficacy: 100%
Tetranychus urticae
  efficacy: 100%
Phaedon cochleariae
  efficacy: 100%

## CCC(=O)NCc1cccc(-c2cnn(-c3c(Cl)cc(C(F)(C(F)(F)F)C(F)(F)F)cc3Cl)c2)c1F [Ia-152]
Boophilus microplus
  efficacy (laying of fertile eggs): 100%
Ctenocephalides felis [1]
  efficacy (rate of extermination): 100%
Musca domestica
  efficacy (rate of extermination): 100%
Myzus persicae
  efficacy: 100%
Spodoptera frugiperda
  efficacy: 100%
Phaedon cochleariae
  efficacy: 100%

## CC(=O)NCc1cc(-c2cnn(-c3c(Cl)cc(C(F)(C(F)(F)F)C(F)(F)F)cc3C#N)c2)ccc1Cl [Ia-104]
Ctenocephalides felis [2]
  efficacy: 100%
Rhipicephalus sanguineus
  efficacy: 100%
Boophilus microplus
  efficacy (laying of fertile eggs): 100%
Ctenocephalides felis [1]
  efficacy (rate of extermination): 100%
Musca domestica
  efficacy (rate of extermination): 100%
Spodoptera frugiperda
  efficacy: 100%
Tetranychus urticae
  efficacy: 100%
Phaedon cochleariae
  efficacy: 100%

## CC(=O)NCc1c(F)ccc(-c2cnn(-c3c(Cl)cc(C(F)(C(F)(F)F)C(F)(F)F)cc3Cl)c2)c1F [Ia-149]
Ctenocephalides felis [2]
  efficacy: 100%
Boophilus microplus
  efficacy (laying of fertile eggs): 100%
Ctenocephalides felis [1]
  efficacy (rate of extermination): 100%
Musca domestica
  efficacy (rate of extermination): 100%
Myzus persicae
  efficacy: 90%
Spodoptera frugiperda
  efficacy: 100%
Tetranychus urticae
  efficacy: 100%
Phaedon cochleariae
  efficacy: 100%

## O=C(NCc1cc(-c2cnn(-c3c(Cl)cc(C(F)(C(F)(F)F)C(F)(F)F)cc3C(F)(F)F)c2)ccc1Cl)C1CC1 [Ia-54]
Ctenocephalides felis [2]
  efficacy: 80%
Rhipicephalus sanguineus
  efficacy: 100%
Boophilus microplus
  efficacy (laying of fertile eggs): 100%
Ctenocephalides felis [1]
  efficacy (rate of extermination): 100%
Musca domestica
  efficacy (rate of extermination): 100%
Spodoptera frugiperda
  efficacy: 100%
Phaedon cochleariae
  efficacy: 100%

## CCC(=O)N(C)Cc1cc(-c2cnn(-c3c(Cl)cc(C(F)(C(F)(F)F)C(F)(F)F)cc3OC(F)(F)F)c2)cnc1Cl [Ia-135]
Myzus persicae
  efficacy: 90%
Spodoptera frugiperda
  efficacy: 100%
Tetranychus urticae
  efficacy: 100%
Phaedon cochleariae
  efficacy: 100%

## CC(=O)NCc1cc(-c2cnn(-c3c(Cl)cc(C(F)(C(F)(F)F)C(F)(F)F)cc3C(F)(F)F)c2)ccc1F [Ia-82]
Ctenocephalides felis [2]
  efficacy: 100%
Rhipicephalus sanguineus
  efficacy: 100%
Boophilus microplus
  efficacy (laying of fertile eggs): 100%
Ctenocephalides felis [1]
  efficacy (rate of extermination): 100%
Musca domestica
  efficacy (rate of extermination): 100%
Spodoptera frugiperda
  efficacy: 100%
Tetranychus urticae
  efficacy: 100%
Phaedon cochleariae
  efficacy: 100%

## CC(=O)N(C)Cc1cc(-c2cnn(-c3c(Cl)cc(C(F)(C(F)(F)F)C(F)(F)F)cc3OC(F)(F)F)c2)ccc1F [Ia-63]
Ctenocephalides felis [2]
  efficacy: 100%
Rhipicephalus sanguineus
  efficacy: 80%
Boophilus microplus
  efficacy (laying of fertile eggs): 100%
Ctenocephalides felis [1]
  efficacy (rate of extermination): 100%
Musca domestica
  efficacy (rate of extermination): 100%
Spodoptera frugiperda
  efficacy: 100%
Tetranychus urticae
  efficacy: 100%
Phaedon cochleariae
  efficacy: 100%

## O=C(NCc1cc(-c2cnn(-c3c(Cl)cc(C(F)(C(F)(F)F)C(F)(F)F)cc3C(F)F)c2)ccc1F)C1CC1 [Ia-58]
Myzus persicae
  efficacy: 70%
Spodoptera frugiperda
  efficacy: 100%
Tetranychus urticae
  efficacy: 100%
Phaedon cochleariae
  efficacy: 100%

## CC(=O)NCc1cc(-c2cnn(-c3c(Cl)cc(C(F)(C(F)(F)F)C(F)(F)F)cc3S(C)(=O)=O)c2)ccc1F [Ia-11]
Rhipicephalus sanguineus
  efficacy: 100%
Boophilus microplus
  efficacy (laying of fertile eggs): 100%
Ctenocephalides felis [1]
  efficacy (rate of extermination): 100%
Musca domestica
  efficacy (rate of extermination): 100%
Myzus persicae
  efficacy: 100%
Tetranychus urticae
  efficacy: 100%
Phaedon cochleariae
  efficacy: 100%

## CCC(=O)NCc1cc(-c2cnn(-c3c(Cl)cc(C(F)(C(F)(F)F)C(F)(F)F)cc3C(F)F)c2)cnc1Cl [Ia-154]
Myzus persicae
  efficacy: 90%
Spodoptera frugiperda
  efficacy: 100%
Tetranychus urticae
  efficacy: 100%
Phaedon cochleariae
  efficacy: 100%
